Measured values taken from a melting point compilation (Tetko et al.; mined from patent text by program, amines drawn as free bases though some values may be those of a salt).

melting point	Compound
176 to 178 °C	Cc1cc(Oc2ccc(NC(=O)N(C)C)cc2)nc(Cl)n1
126 to 128 °C	Cc1cc(SC2CC(=O)N(c3ccccc3)C2=O)cc(C(C)(C)C)c1N (stereo not given)
278 to 280 °C	Cc1c(-c2ccc(O)cc2)n(Cc2ccc(/C=C/C(=O)N(C)C)cc2)c2ccc(O)cc12
147 to 149 °C	CC(C)[C@H](C[C@H](O)[C@H](C)NC(=O)OC(C)(C)C)C(=O)NCc1cccnc1
160 to 162 °C	Cc1cc(C)c(Nc2nc(C)ccc2S(=O)(=O)c2ccc(OCCCC#N)cc2)c(C)c1
147 to 149 °C	CN1C(=O)CCC1(O)c1ccc(Cl)c(S(N)(=O)=O)c1 (stereo not given)
56 to 57 °C	ONCc1ccccc1
139 to 141 °C	COC(=O)CN(NC(N)=O)c1cc(C)cc(C)c1
106 to 107 °C	COc1c(OC)c(OC(C)=O)c2cc(Cl)ccc2c1O
171 to 173 °C	COC(=O)CCNc1c(C#N)cnn1-c1c(Cl)cc(C(F)(F)F)cc1Cl
144 °C	CCC(Oc1ccc2c(-c3ccc(Cl)cc3)noc2c1)C(=O)O (stereo not given)
106 to 108 °C	CC(=O)c1c(-c2cc(C)cs2)sc(-c2ccncc2)c1C
61 to 62 °C	Cc1cc(CCCOc2c(C)cc(-c3noc(C(F)(F)F)n3)cc2C)on1
87 to 89 °C	CCOC(=O)C1=Cc2sccc2S(=O)(=O)N1C
160 to 163 °C	COc1ccccc1N1CCN(CC(C(=O)NC(C)(C)C)c2ccccc2)CC1 (stereo not given)
> 250 °C	Nc1ccc(C=C2c3ccccc3CCc3ccccc32)cc1
90 to 91.9 °C	c1ccc([C@H]2C[C@@H]2Nc2cc(-c3ccco3)nc(-c3nccs3)n2)cc1 (relative stereo)
197 to 199 °C	CC(=O)Nc1cccc(-c2ccc(C)c(COc3cccc4ccc(C)nc34)c2C)c1
123 to 124 °C	COc1ccc(C2CC(=O)N(C(=O)Nc3ccc(F)cc3)N2C)cc1OC1CCCC1 (stereo not given)
150 to 152 °C	Fc1cc(-c2nc3ccccc3o2)ccc1CBr
169 °C	N#Cc1ccc(NC(=S)NCc2ccncc2)cc1
116 to 118 °C	CC(=O)Oc1ccc(C(C[N+](=O)[O-])SC(=S)N(C)C)cc1 (stereo not given)
57 to 59 °C	Cc1cc(CCCCCOc2c(Cl)cc(C3=NCCC3)cc2Cl)on1
159 to 161 °C	CCCn1cc(Cc2ccc(C(=O)OC)cc2OC)c2cc(C=C(C)C(=O)O)ccc21
138 °C	CN(C)C(=S)Oc1ccc(C(=O)c2ccccc2C#N)cc1

melting point	Compound
100 to 105 °C	O=C(O)Cc1c(Cl)nc(-c2cc([N+](=O)[O-])c(Cl)c([N+](=O)[O-])c2)n1Cc1ccccc1
154 °C	CCCCCCOC(C)c1ccc(-c2ccc(C(=O)O)cc2)cc1 (single isomer, unassigned; (+))
193 °C	COc1ccccc1Sc1c(NS(=O)(=O)c2ccc(C(C)(C)C)cc2)ncnc1OCCOC(=O)Nc1ccccn1
45 to 47 °C	CC(C)(C)c1ccc(OCC(O)CN(CCO)CCO)cc1 (stereo not given)
99 to 103 °C	CC(C)c1nc(CN=[N+]=[N-])n(Cc2cccnc2)c1Sc1cc(Cl)cc(Cl)c1
146 to 148 °C	Clc1ncccc1-c1nnsc1-c1cccnc1Cl
154 to 155 °C	O=C1c2ccccc2C(=O)N1CC(=C(Br)Br)c1ccccc1
> 320 °C	CCOc1ccc2nc3[nH]c(=O)[nH]c3cc2c1
68 °C	N#CCC1Cn2cccc2C1=O (stereo not given)
213 to 214 °C	NC(=O)C1=CCCc2cc(Sc3cccc(F)c3)cc(F)c21
181 to 184 °C	CC(C)(C)c1ccc2sc3cc(C#N)ccc3c(=O)c2c1
75 to 77 °C	CC(C)(C)OC(=O)NCCCc1ccccc1O
81 to 84 °C	Cc1c(-c2ccccc2)oc2c(SCCCCCl)cccc2c1=O
133 to 135 °C	Nc1ccc(OC(F)(F)F)c(-c2nc3ccccc3o2)c1
213 to 215 °C	O=C(Cc1c(-c2ccccc2)c2cc(CSc3ccccn3)c(Cl)cc2oc1=O)Nc1ccc(Cl)cc1C(F)(F)F
103 to 104 °C	CCCN1C(=O)c2ccccc2Sc2ccccc21
200 to 201 °C	COc1cc(O)c2c(c1O)CC(C)=C(C)C2
189 to 191 °C	COc1ccc(S(C)(=O)=O)cc1C(=O)O
86 to 87 °C	COC(=O)c1nn(C)nc1C(=O)OC
114 to 117 °C	CC(=O)NC(C)c1cc(S(N)(=O)=O)sc1S(C)(=O)=O (stereo not given)
137 to 140 °C	Cc1c(-c2cccnc2)n(CCCCCC(N)=O)c2ccc(Cl)cc12
147 to 148 °C	COc1cc(N)c(Cl)cc1C(=O)NCC1CCN(CCCS(=O)(=O)Cc2ccc(F)cc2)CC1
185 °C	O=C(NC1CCCCC1)c1ccc(CO)cc1
70 to 73 °C	CCCCCCCCCCOc1ccc(-c2ccccc2)cc1
167 to 169 °C	O=C1N(CC2CCCO2)c2ccc(F)cc2C12COc1cc3c(cc12)CCO3 (stereo not given)

melting point	Compound
> 300 °C	COCCn1cc2c(C3C(=O)Nc4ccc(Br)cc43)nc(NCCN3CCOCC3)nc2n1 (stereo not given)
130 °C	CCNC(=O)c1cc(Oc2nn(C)c(C(F)(F)F)c2Cl)ccc1[N+](=O)[O-]
160 to 162 °C	Cc1cc(C(=O)N(C)C)c(O)c([N+](=O)[O-])c1
70 °C	OCCC(c1ccccc1)c1cc(Br)ccc1OCc1ccccc1 (stereo not given)
239 to 240 °C	c1nc(Nc2ccc(N3CCOCC3)cc2)cc(NC2CCCCC2)n1
141 to 143 °C	O=S1(=O)CCc2nn(-c3ccc(Cl)cc3F)c(Cl)c2C1
203 to 204 °C	CC(C)(C(=O)OCC(=O)c1ccccc1)n1c(=O)[nH]c2cc(Cl)ccc2c1=O
137 to 138 °C	COc1nc(C#N)c(C#N)[nH]1
170 to 174 °C	CC1Cc2cc3c(cc2C(C=Cc2ccc(F)cc2)=NN1)OCO3 (stereo not given)
176 to 177 °C	O=C1c2ccccc2-c2c1c1ccccc1c(=O)n2CCCCNS(=O)(=O)c1ccc(Br)cc1
230 to 233 °C	O=C1NC(=O)C2(CCCc3ncc(Cl)cc32)N1 (stereo not given)
173 °C	CN(CCOc1ccc(NC(=O)c2cccc3c(=O)c4ccccc4[nH]c23)cc1)Cc1ccccc1
120 °C	COC(=O)C(C)(NC1OC(=O)C2C3C=CC(C3)C12)c1ccccc1 (stereo not given)
168 to 169 °C	CCOC(=O)C1=C(C)NC(C)=C(C(=O)OCCC#N)C1c1ccccc1/C=C/C(=O)OC(C)(C)C (stereo not given)
138 to 140 °C	CSc1c(O[C@H]2CC[C@H](N)CC2)ccc2[nH]ncc12
212 to 218 °C	CNC(=O)[C@H]1O[C@@H](n2cnc3c(NCc4cc(Cl)ccc4OCC4OC(O)C(O)C(O)C4O)ncnc32)[C@H](O)[C@@H]1N (stereo not given in full)
167 to 168 °C	COc1cc2ncnc(Nc3ccc(F)c(Cl)c3)c2cc1OCCC1OCCO1
301 to 304 °C	Cc1cc(-c2ccccc2)c(C)cc1-c1ccccc1
233 to 235 °C	O=C(COc1ccccc1)Nc1c(Cl)ccc2nc(N3CC[C@@H](O)C3)ccc12
59 to 61 °C	CCC(Oc1ccccc1)C(=O)NCCO[N+](=O)[O-] (stereo not given)
120 to 122 °C	CCCCCCCCOC(=O)NCC1CCC(CNC(=O)OCCCCCCCC)CC1 (stereo not given)
143 °C	Cc1ccc(Cn2ccc(OCc3ccccc3)cc2=O)cc1
227 to 229 °C	Clc1ccc(Cn2c(-c3ccccn3)nc3ccccc32)cc1Cl
177 to 178 °C	Cc1nc2cc3c(cc2s1)C1(CO3)C(=O)N(Cc2ncc(Cl)n2C)c2ccccc21 (stereo not given)
200 to 203 °C	CCc1cc(C(=O)c2ccccc2Cl)c(-n2c(CNC(=O)c3cc4ccccc4n3CC(=O)O)nnc2C(F)(F)F)s1

melting point	Compound
170 °C	Clc1ccc(C=NCCN=Cc2ccc(Cl)nc2)cn1
149 to 151 °C	Cc1[nH]cnc1CSCCN(C)C(N)=S
115 to 117 °C	O=C1CCCN1C(=O)c1ccc(OCc2ccccc2)cc1
224 to 226 °C	NC(=O)NCc1ccc2c(c1)CN(C1CCC(=O)NC1=O)C2=O (stereo not given)
110 °C	N#Cc1c(NCCCn2ccnc2)cccc1Oc1ccc(-c2cn(C3CCOC3)c3ncnc(N)c23)cc1 (stereo not given)
320 to 325 °C	O=c1[nH]c2cc(Cl)c([N+](=O)[O-])c(Cl)c2[nH]c1=O
210 °C	CCSc1nc(-c2ccc(O)cc2)cn1C
125 to 126 °C	O=C(Cc1ccncc1)[N+]1([O-])CCC(C2c3ccc(Cl)cc3CCc3cccnc32)CC1 (stereo not given)
118 to 122 °C	O=C1C(=O)c2ccccc2C2=C1SCC1(CCN(Cc3ccccc3F)CC1)O2
72 to 73 °C	Cn1c(CCNC2CCN(Cc3ccccc3)CC2)cc2ccccc21
140 °C	Oc1ccccc1C=Cc1cccc2[nH]ccc12
89 to 90 °C	COc1ccc(C(=O)c2coc3ccccc23)cc1
168 to 184 °C	CS(=O)(=O)c1ccc(-c2sc(-c3ccccc3Cl)nc2-c2ccc(Br)cc2)cc1
227 to 229 °C	Nc1ncnc2c1nc(OC(=O)c1ccccc1)n2Cc1ccccc1
212 to 215 °C	c1ccc(C2(c3ccccc3)Oc3ccc(-c4nnn[nH]4)cc3O2)cc1
182 to 184 °C	CN1CCN(Cc2c(Cl)cccc2Cl)C(C2=NCCN2)C1 (stereo not given)
73 to 74 °C	CCCC(=O)NCCN1CCOc2ccc(OC)cc21
84.4 °C	CC(Nc1ncccc1C#N)c1c(Cl)cccc1Cl (stereo not given)
154 to 155 °C	O=C1CC(CP(=O)(c2ccccc2)c2ccccc2)O1 (stereo not given)
89.9 to 90.3 °C	CC(=O)OC1O[C@H](CN=[N+]=[N-])[C@H](OC(C)=O)[C@H](OC(C)=O)[C@H]1OC(C)=O (stereo not given in full)
121 to 123 °C	Cn1c(CCNC(=O)OCc2ccccc2)nc(-c2ccncn2)cc1=O
124 to 127 °C	O=C(Nc1cccc2ccccc12)N(CCCN1CCC(Cc2ccccc2)CC1)c1ccccc1

Compound	melting point
COc1cc2[nH]c(C)c(CCN3CCN(NC(=O)c4ccccc4)CC3)c2cc1OC	128 to 131 °C
Nc1cc(F)c(F)cc1C(=O)c1ccccc1	100 to 101 °C
O=C(Nc1ccc(N(CCCl)CCCl)cc1)Nc1cc(CO)cc(Nc2c3ccccc3nc3ccccc23)c1	173 to 175 °C
